Counter-ions that a name gives are not always drawn.

Take `CCc1ccc(CN2CCC(Nc3nnc(-c4ccc(OC)cc4)c4ccc(OC)cc34)CC2)cc1.Cl.Cl` (hydrate or solvate): the melting point turned out to be 245 °C.

In the case of `COc1ccc(-c2nnc(NC3CCN(Cc4ccc5sccc5c4)CC3)c3cc(OC)ccc23)cc1` (as salt: salt) (hydrate or solvate) [Compound 60, N-[1-(1-benzothien-5-ylmethyl)piperidin-4-yl]-7-methoxy-4-(4-methoxyphenyl)phthalazin-1-amine], the melting point is 176 °C.

In the case of `COc1ccc(-c2nnc(NC3CCN(Cc4ccc(NC(C)=O)cc4)CC3)c3cc(OC)ccc23)cc1.Cl.Cl` (hydrate or solvate), the melting point came out at 255 °C.

Consider `Cl.Cl.c1ccc(-c2ccc3c(-c4ccccc4)nnc(NC4CCN(Cc5ccc6ccccc6c5)CC4)c3c2)cc1` (hydrate or solvate), for which the melting point was determined as 224 °C.

The compound `COc1ccc(-c2nnc(NC3CCN(Cc4ccc(C)c(F)c4)CC3)c3cc(OC)ccc23)cc1` [Compound 74, N-[1-(3-fluoro-4-methylbenzyl)piperidin-4-yl]-7-methoxy-4-(4-methoxyphenyl)phthalazin-1-amine] had a melting point of 210 °C.

In the case of `COc1ccc2c(COc3ccccc3)nnc(NC3CCN(Cc4ccc5ccccc5c4)CC3)c2c1.Cl.Cl` (hydrate or solvate), the melting point was found to be 239 °C.

The compound `COCc1nnc(NC2CCN(Cc3ccc4ccccc4c3)CC2)c2cc(OC)ccc12.Cl` (hydrate or solvate) came in with a melting point of 176 °C.

With `CCCCc1nnc(NC2CCN(Cc3ccc4ccccc4c3)CC2)c2cc(OC)ccc12` (as salt: salt) (hydrate or solvate) [Compound 67, 4-Butyl-7-methoxy-N-[1-(naphthalen-2-ylmethyl)piperidin-4-yl]phthalazin-1-amine], the melting point was determined as 101 °C.

Consider `COc1ccc(-c2nnc(N[C@H]3CCN(Cc4ccc5ccccc5c4)C3)c3cc(OC)ccc23)cc1` (as salt: HCl) (hydrate or solvate) [Compound 96, 4-(4-Methoxyphenyl)-7-methoxy-N-[(3S)-1-(naphthalen-2-ylmethyl)pyrrolidin-3-yl]phthalazin-1-amine], for which the melting point turned out to be 280 °C.

With `COc1ccc(OC)c(-c2nnc(NC3CCN(Cc4ccc5ccccc5c4)CC3)c3cc(OC)ccc23)c1.Cl.Cl` (hydrate or solvate), the melting point came out at 240 °C.

As for `COc1ccc2c(C)nnc(NC3CCN(Cc4ccc5ccccc5c4)CC3)c2c1` [Compound 95, 7-Methoxy-4-methyl-N-[1-(naphthalen-2-ylmethyl)piperidin-4-yl]phthalazin-1-amine], the melting point was 188 °C.

Regarding `COc1ccc(-c2nnc(NC3CCN(Cc4ccc5ccccc5c4)CC3)c3ccc(C)cc23)cc1` (as salt: salt) (hydrate or solvate) [Compound 142, 4-(4-methoxyphenyl)-6-methyl-N-[1-(naphthalen-2-ylmethyl)piperidin-4-yl]phthalazin-1-amine], the melting point stood at 134 °C.

Consider `COc1ccc(-c2nnc(NC3CCN(Cc4ccc5[nH]ccc5c4)CC3)c3cc(OC)ccc23)cc1` (as salt: salt) (hydrate or solvate) [Compound 87, N-[1-(1H-indol-5-ylmethyl)piperidin-4-yl]-7-methoxy-4-(4-methoxyphenyl)phthalazin-1-amine], for which the melting point was 281 °C.

Regarding `COc1ccc(-c2nnc(NC3CCN(Cc4ccc(CO)cc4)CC3)c3cc(OC)ccc23)cc1.Cl.Cl`, the melting point amounted to 139 °C.

Consider `COCc1nnc(NC2CCN(Cc3ccc4c(c3)OCO4)CC2)c2cc(OC)ccc12.Cl.Cl` (hydrate or solvate), for which the melting point was 284 °C.

As for `COc1ccc(-c2nnc(NC3CCN(Cc4ccc(OC)c(C)c4)CC3)c3cc(OC)ccc23)cc1` (as salt: salt) (hydrate or solvate) [Compound 89, 7-methoxy-N-[1-(4-methoxy-3-methylbenzyl)piperidin-4-yl]-4-(4-methoxyphenyl)phthalazin-1-amine], the melting point is 270 °C.

Take `COc1ccc(-c2nnc(NC3CCN(Cc4ccccc4)CC3)c3cc(OC)ccc23)cc1` (as salt: salt) (hydrate or solvate) [Compound 7, N-(1-benzylpiperidin-4-yl)-7-methoxy-4-(4-methoxyphenyl)phthalazin-1-amine]: the melting point amounted to 150 °C.

`COc1cc(OC)c2cnnc(NC3CCN(Cc4ccc5ccccc5c4)CC3)c2c1` (as salt: salt) (hydrate or solvate) [Compound 14, 5,7-dimethoxy-N-[1-(naphthalen-2-ylmethyl)piperidin-4-yl]phthalazin-1-amine] returned a melting point of 206 °C.

Compound `COc1ccc(-c2nnc(NC3CCN(Cc4ccc(C(C)O)cc4)CC3)c3cc(OC)ccc23)cc1.Cl.Cl` (centres unmarked) (hydrate or solvate) returned a melting point of 208 °C.

Consider `COc1ccc2c(CO)nnc(NC3CCN(Cc4ccc5ccccc5c4)CC3)c2c1` (as salt: HCl) (hydrate or solvate) [Compound 148, 4-Hydroxymethyl-7-methoxy-N-[1-(naphthalen-2-ylmethyl)piperidin-4-yl]phthalazin-1-amine], for which the melting point came out at 186 °C.

For `COc1cccc(-c2nnc(NC3CCN(Cc4ccccc4)CC3)c3cc(OC)ccc23)c1` (as salt: salt) (hydrate or solvate) [Compound 6, N-(1-benzylpiperidin-4-yl)-7-methoxy-4-(3-methoxyphenyl)phthalazin-1-amine], the melting point was determined as 176 °C.

For the compound `COc1ccc2c(-c3ccc(-c4ccccc4)cc3)nnc(NC3CCN(Cc4ccc5ccccc5c4)CC3)c2c1.Cl.Cl` (hydrate or solvate), the melting point came out at 292 °C.

In the case of `COc1ccc2c(Cc3ccccc3)nnc(NC3CCN(Cc4ccc5ccccc5c4)CC3)c2c1` (as salt: salt) (hydrate or solvate) [Compound 21, 4-Benzyl-7-methoxy-N-[1-(naphthalen-2-ylmethyl)piperidin-4-yl]phthalazin-1-amine], the melting point turned out to be 104 °C.

In the case of `COc1ccc2c(-c3ccc(OC)c(OC)c3)nnc(NC3CCN(Cc4ccc5ccccc5c4)CC3)c2c1` (as salt: salt) (hydrate or solvate) [Compound 10, 4-(3,4-Dimethoxyphenyl)-7-methoxy-N-[1-(naphthalen-2-ylmethyl)piperidin-4-yl]phthalazin-1-amine], the melting point is 131 °C.

Take `COc1cc(OC)c2cnnc(NC3CCN(Cc4ccccc4)CC3)c2c1` (as salt: salt) (hydrate or solvate) [Compound 13, N-(1-benzylpiperidin-4-yl)-5,7-dimethoxyphthalazin-1-amine]: the melting point came out at 169 °C.

`COc1ccc(-c2nnc(NC3CCN(Cc4ccc5ccccc5c4)CC3)c3cc(OC)ccc23)c(OC)c1.Cl.Cl` (hydrate or solvate) returned a melting point of 228 °C.

In the case of `COc1ccc(-c2nnc(NC3CCN(Cc4ccc5ccccc5c4)CC3)c3cc(C)ccc23)cc1` (as salt: salt) (hydrate or solvate) [Compound 9, 4-(4-methoxyphenyl)-7-methyl-N-[1-(naphthalen-2-ylmethyl)piperidin-4-yl]phthalazin-1-amine], the melting point amounted to 198 °C.

For `COc1ccc(OC)c(-c2nnc(NC3CCN(Cc4ccc5ncsc5c4)CC3)c3cc(OC)ccc23)c1` (as salt: salt) (hydrate or solvate) [Compound 135, N-[1-(1,3-benzothiazol-6-ylmethyl)piperidin-4-yl]-4-(2,5-dimethoxyphenyl)-7-methoxyphthalazin-1-amine], the melting point amounted to 193 °C.

Turning to `COc1ccc(-c2nnc(NC3CCN(Cc4ccc(CN)cc4)CC3)c3cc(OC)ccc23)cc1.Cl.Cl.Cl` (hydrate or solvate), the melting point stood at 284 °C.

In turn, `COCc1ccc(-c2nnc(NC3CCN(Cc4ccc5ccccc5c4)CC3)c3cc(OC)ccc23)cc1` (as salt: salt) (hydrate or solvate) [Compound 88, 7-Methoxy-4-(4-methoxymethylphenyl)-N-[1-(naphthalen-2-ylmethyl)piperidin-4-yl]phthalazin-1-amine] had a melting point of 155 °C.

Take `COc1ccc(-c2nnc(NC3CCN(Cc4ccc5c(c4)OCO5)CC3)c3cc(OC)ccc23)cc1.Cl.Cl` (hydrate or solvate): the melting point is 235 °C.

`COc1ccc(-c2nnc(NC3CCN(Cc4ccc5ncccc5c4)CC3)c3cc(OC)ccc23)cc1` (as salt: salt) (hydrate or solvate) [Compound 99, 7-methoxy-4-(4-methoxyphenyl)-N-[1-(quinolin-6-ylmethyl)piperidin-4-yl]phthalazin-1-amine]: the melting point is 249 °C.

As for `COc1ccc(-c2nnc(NC3CCN(Cc4ccc5[nH]cnc5c4)CC3)c3cc(OC)ccc23)cc1` [Compound 138, N-[1-(1H-benzimidazol-5-ylmethyl)piperidin-4-yl]-7-methoxy-4-(4-methoxyphenyl)phthalazin-1-amine], the melting point was found to be 267 °C.

In turn, `COc1ccc(-c2nnc(NC3CCN(Cc4ccc5ccccc5c4)CC3)c3cc(Cl)ccc23)cc1.Cl.Cl` (hydrate or solvate) yielded a melting point of 230 °C.

`COc1cccc(-c2nnc(NC3CCN(Cc4ccc5ccccc5c4)CC3)c3cc(OC)ccc23)c1` (as salt: salt) (hydrate or solvate) [Compound 5, 7-methoxy-4-(3-methoxyphenyl)-N-[1-(naphthalen-2-ylmethyl)piperidin-4-yl]phthalazin-1-amine] yielded a melting point of 154 °C.

Compound `COc1ccc(-c2nnc(NC3CCN(Cc4ccc5cc[nH]c5c4)CC3)c3cc(OC)ccc23)cc1` (as salt: salt) (hydrate or solvate) [Compound 129, N-[1-(1H-indol-6-ylmethyl)piperidin-4-yl]-7-methoxy-4-(4-methoxyphenyl)phthalazin-1-amine] yielded a melting point of 278 °C.

Compound `COc1ccc(-c2nnc(NC3CCN(Cc4ccc(CN(C)C)cc4)CC3)c3cc(OC)ccc23)cc1.Cl.Cl.Cl` (hydrate or solvate) had a melting point of 218 °C.

For the compound `COc1ccc2c(-c3ccc(F)cc3)nnc(NC3CCN(Cc4ccc5ccccc5c4)CC3)c2c1` (as salt: salt) (hydrate or solvate) [Compound 82, 4-(4-Fluorophenyl)-7-methoxy-N-[1-(naphthalen-2-ylmethyl)piperidin-4-yl]phthalazin-1-amine], the melting point stood at 175 °C.

As a reminder, the melting point is the temperature of the solid-liquid transition.

Source of the values: patent US7423030B2, “1-amino-phthalazine derivatives, the preparation and the therapeutic use thereof” (Sanofi-Aventis, priority 2004, dated 2008).
